Results as given in patent US20050267222A1, “Stabilized composition” (DAINIPPON PHARMACEUTICAL CO. LTD., priority 2002, published 2005).

Assays:
[1] = Absorption of aldehyde by stabilizer (Experiment 4); type: physicochemical; conditions: for Residual rate of formaldehyde in the cup: 25° C. for 2 days, 1 g meglumine powder enclosed
Protocol: Meglumine powder (1 g) was stored in a sealed stoppered glass test tube together with a cup containing an aqueous formaldehyde solution (2 ml) (containing potassium iodide for adjusting moisture) in various concentrations (see FIG. 4). For a comparative control, a cup containing an aqueous formaldehyde solution (2 ml) (containing potassium iodide for adjusting moisture) in various concentrations was put into a sealed stoppered glass test tube without meglumine. The test tubes were stored at 25° C. or 40° C. for 2 days, and the residual amount of formaldehyde in the cup was measured in a similar manner to Experiment 1.

[2] = Reaction of Compound A powder with formaldehyde vapour, related substances by HPLC (Experiment 2); type: physicochemical; conditions: 50° C. for 14 days
Protocol: When Compound A powder (2 mg) was stored in a sealed stoppered glass test tube together with a cup containing an aqueous formaldehdye solution (1 ml) in various concentrations (see FIG. 2), and stored at 50° C. for 14 days, the generated amount of related substances of Compound A was measured. The generated amount of the related substances was measured by dissolving Compound A powder (2 mg) in methanol (200 ml) to give a test solution, and applying 10 μl thereof to high performance liquid chromatograph under the following conditions. The percentage ratio of the peak area of the related substances to the total peak area including that of Compound A was regarded as the generation amount thereof.
Conditions for High Performance Liquid Chromatograph:
Column: Develosil ODS-5 (inner diameter: 4.6 mm×150 mm, manufactured by NOMURA CHEMICAL CO., LTD.)
Mobile phase: Mixture of 0.01M citric acid buffer (pH 2.5):acetonitrile (75:25)
Detector: Ultraviolet-visible spectrophotometer (wave length for detection: 220 nm)
Temperature: Constant temperature around 40° C.

| SMILES | Residual ratio of formaldehyde in the cup compared to without meglumine (in words) ([1]; after storage) | Residual rate of formaldehyde in the cup ([1]; formaldehyde 0.1 μg/ml) [%] | Residual rate of formaldehyde in the cup ([1]; formaldehyde 0.5 μg/ml) [%] | Residual rate of formaldehyde in the cup ([1]; formaldehyde 1 μg/ml) [%] | Generated amount of related substances ([2]; aldehyde concentration in the cup: Not detected) | Generated amount of related substances ([2]; aqueous formaldehyde in the cup 0.0625 μg/ml) | Generated amount of related substances ([2]; aqueous formaldehyde in the cup 0.125 μg/ml) [%] | Generated amount of related substances ([2]; aqueous formaldehyde in the cup 0.25 μg/ml) [%] | Generated amount of related substances ([2]; aqueous formaldehyde in the cup 0.5 μg/ml) [%] | Generated amount of related substances ([2]; aqueous formaldehyde in the cup 1.0 μg/ml) [%] |
| --- | --- | --- | --- | --- | --- | --- | --- | --- | --- | --- |
| CNC[C@H](O)[C@@H](O)[C@H](O)[C@H](O)CO [meglumine] | apparently lowered | 85.1 | 75.5 | 70.7 |  |  |  |  |  |  |
| C[C@H](Cc1c[nH]c2c(OCC(=O)O)cccc12)NC[C@H](O)c1cccc(Cl)c1 [Compound A, [3-[(2R)-[[(2R)-(3-chlorophenyl)-2-hydroxyethyl]amino]propyl]-1H-indol-7-yleoxy]acetic acid] |  |  |  |  | Not detected | Not detected | 0.031 | 0.063 | 0.091 | 0.136 |
